Structures are written as SMILES. Where “and” joins values, the source holds several entries; their conditions need not be identical. Equal values may be shown once.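 96-well plates; 48 h exposure; 5 concentrations. Endpoints by linear interpolation between flanking doses. Not reached: highest tested concentration assigned. GI50 = concentration required for 50% inhibition of growth. At the TGI there is no net growth.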

The test system of this assay is MDA-MB-468 breast. As to the kind of experiment: DTP human tumour cell line panel, 48 h.

Usually GI50 stands for the concentration at which growth is held to half of that of the control. The term TGI denotes the concentration giving total growth inhibition. A lower TGI goes with more potent growth arrest. Regarding `NC(=O)c1cccc(Nc2nccc(Nc3cccc(F)c3)n2)c1`, the GI50 was 3.88 µM and the TGI is 12.8 µM.

Turning to `COc1ccc2cc(-c3ccc(-c4ccc(C(=N)N)s4)s3)ccc2c1`, the GI50 is 2.34 µM and the TGI worked out at 4.44 µM.

Consider `CC1CCCc2c1nn(C(=O)/C=C(\N)c1ccccc1)c2N` (stereo unspecified), for which the GI50 is 11.9 µM and the TGI is more than 100 µM.

For the molecule `O=S1(=O)NCCCN1CCNc1nccc(-c2c(-c3cccc(O)c3)nc3sccn23)n1`, the GI50 is 13.3 µM and the TGI is more than 86.1 µM.

Regarding `c1ccc(Cn2cnc3ccc(-c4nc(-c5ccc6c(c5)ncn6C5CCCCC5)cn5ccnc45)cc32)cc1`, the GI50 was 1.92 µM and the TGI is 4.43 µM.

On to `CCC(=C(c1ccc(OCCCN(C)C)cc1)c1ccc(OCCCN(C)C)cc1)c1ccc(Cl)cc1`, for which the GI50 was 1.15 µM and the TGI was found to be 3.74 µM.

With `O=C1C(Cl)=C(Nc2ccccc2)C(=O)c2ccccc21`, the GI50 is 1.52 µM and the concentration for total growth inhibition (TGI) worked out at 3.1 µM.

On to `CCCCCCCCCCCC[n+]1ccccc1` (tested in a mixture with another compound), for which the GI50 was 0.246 µM and the TGI stood at 3.36 µM.

With `O=C(/C=C/c1ccccc1)CC(c1ccccc1)N1CCOCC1` (stereo unspecified), the GI50 is 2.05 µM and the TGI stood at 5.56 µM.

For the molecule `CNC(=O)c1cc2c(Oc3ccc(NC(=O)C4(C(=O)Nc5ccc(F)cc5)CC4)cc3)ccnc2cc1OC`, the GI50 is 2.88 µM and the TGI worked out at 13.5 µM.

On to `CC(=O)N[C@H](C(=O)N[C@@H](CCCNC(=N)N)C(=O)N[C@@H](CCCCN)C(=O)N[C@@H](CCCNC(=N)N)C(=O)N[C@]1(C)CCCCCC/C=C\CCC[C@@](C)(C(=O)N[C@@H](CCCNC(=N)N)C(=O)N[C@@H](CCC(=O)O)C(=O)N[C@@H](CC(C)C)C(=O)N[C@H](C(=O)N[C@@H](CCC(=O)O)C(N)=O)C(C)C)NC(=O)[C@H](CCC(N)=O)NC(=O)[C@H](CC(C)C)NC(=O)[C@H](CC(C)C)NC(=O)[C@H](CCCNC(=N)N)NC(=O)[C@H](CCCNC(=N)N)NC(=O)[C@H](CC(C)C)NC1=O)C(C)C`, for which the GI50 was 3.82 µM and the TGI turned out to be 32.6 µM.

Consider `COCCOCCOCc1n(Cc2ccc3ccccc3n2)c2ccccc2[n+]1Cc1ccc2ccccc2c1`, for which the GI50 is 0.259 µM and the TGI was 0.996 µM.

For `COc1ccc(-c2nnc(N3CCN(C(=O)CN4CCN(c5ccc(OC)cc5)CC4)CC3)nc2-c2ccc(OC)cc2)cc1`, the GI50 was 4.23 µM and the total growth inhibition concentration (TGI) was found to be 21.7 µM.

`Cn1c([N+](=O)[O-])cnc1/C=C1\Oc2cc(Cl)ccc2C1=O`: the GI50 is 3.15 µM and the TGI worked out at 15.2 µM.

In the case of `COc1ccc(/C=C2/CCc3cc4ccc(OC)cc4[o+]c32)c(O)c1`, the GI50 was 14 µM and the TGI came to 34.9 µM.

In the case of `CCCCCCCCCCCCCCCCCCNC(=O)[C@H]1CSC(c2cccs2)N1` (stereo partly specified), the GI50 was 9.32 µM and the TGI is more than 50 µM.

As for `Cc1nc(Nc2n[nH]c3c2CN(C(=O)N[C@H](CN(C)C)c2ccccc2)C3(C)C)c2sccc2n1`, the GI50 is 0.247 µM and 0.226 µM; the TGI is 2.26 µM and 2.47 µM.

`COc1ccccc1/C=C/C(=O)/C=C/c1ccccc1O`: the GI50 was 0.53 µM and the TGI worked out at 2.06 µM.

`COc1cc2c(cc1-c1c(C)noc1C)cc(C)c(=O)n2Cc1ccccn1`: the GI50 is 0.859 µM and the TGI stood at 4.8 µM.

Regarding `C[C@H](Cn1ncnn1)Nc1ncc2cc(Oc3ccc(F)cc3F)c(=O)n(C)c2n1`, the GI50 was more than 25 µM and the TGI was more than 25 µM.

Take `Cc1cc(Nc2nc(SCc3ccc(C(=O)Nc4ccc(F)cc4N)cc3)nn3cccc23)n[nH]1`: the GI50 is 0.432 µM and the TGI stood at 36 µM.

Turning to `C=C1CC2(OC1=O)C(=O)N(CCCN1C(=O)C3(CC(=C)C(=O)O3)c3ccccc31)c1ccccc12` (stereo unspecified), the GI50 was 1.28 µM and the TGI amounted to 3.25 µM.

Take `O=C(O)CCC(NC(=S)S)C(=O)O.[Na+].[Zn+2]` (stereo unspecified): the GI50 is more than 50 µM and the TGI is more than 50 µM.

For `Cn1cc(-c2csc(-c3cn(C)c4ccccc34)n2)c2cnccc21`, the GI50 is 0.265 µM and the total growth inhibition concentration (TGI) is 0.866 µM.

Consider `CC1(C)N=C(N)N=C(N)N1c1ccc(OCC(=O)Nc2ccccc2)c(Cl)c1`, for which the GI50 was 3.05 µM and the TGI was more than 100 µM.

In the case of `O=S(=O)(CCOCc1ccc(-c2ccc3ncnc(Nc4ccc(OCc5cccc(F)c5)c(Cl)c4)c3c2)o1)c1ccccc1`, the GI50 was 0.105 µM and the TGI was determined as 2.33 µM.

Turning to `CCCCCCCCCCN=C(c1ccc(N(C)C)cc1)c1ccc(N(C)C)cc1`, the GI50 was 0.383 µM and the TGI worked out at 36.7 µM.

On to `Cc1ncc(C(=O)Nc2ccc(CN3CCN(C)CC3)c(C(F)(F)F)c2)cc1C#Cc1cnc(NC2CC2)c2ncccc12`, for which the GI50 was 3.92 µM and the TGI turned out to be 9.32 µM.

For `CCN(CC)CCNC(=O)c1cn2ncnc(Oc3ccc(NC(=O)Nc4ccc(Cl)c(C(F)(F)F)c4)c(F)c3)c2c1C`, the GI50 is 1.57 µM and the TGI stood at 3.2 µM.

Turning to `CCC1=C[C@@H]2CN(C1)Cc1c([nH]c3ccccc13)[C@@](C(=O)OC)(c1cc3c(cc1OC)N(C)[C@H]1[C@@](O)(C(=O)OC)[C@H](OC(C)=O)[C@]4(CC)[C@@H]5C[C@@H]5CN5CC[C@]31[C@@H]54)C2`, the 50% growth inhibitory concentration (GI50) is less than 0.005 µM and the TGI came to 5.74 µM.

On to `Cn1c(/C(C#N)=C/c2ccc3ccccc3c2)cc2ccccc21`, for which the GI50 is 0.422 µM and the TGI was more than 100 µM.

`NC(=O)C1(N2CCCCC2)CCN(CCCC(=O)c2ccc(F)cc2)CC1`: the GI50 was 0.0204 µM and the TGI came to 0.0682 µM.

In the case of `CCN(CC)CCNC(=O)c1c(C)[nH]c(/C=C2\C(=O)Nc3ccc(F)cc32)c1C`, the GI50 was > 10 µM and 3.25 µM and 1.41 µM; the TGI was > 10 µM and 6.21 µM and 4.31 µM.

Source of the values: PubChem BioAssay (NCI).
